{"source": "EPA's ToxRefDB 2", "key": {"mouse [1]": {"tested_on": "mouse", "conditions": "Subchronic inhalation toxicity, cd1, Whole-Body, dose end: 13 week, group: systemic"}, "rat [2]": {"tested_on": "rat", "conditions": "Combined chronic toxicity/carcinogenicity, fischer, Inhalation, Whole-Body, dose end: 104 week, group: systemic"}, "rabbit [3]": {"tested_on": "rabbit", "conditions": "Subchronic inhalation toxicity, new zealand white, Whole-Body, dose end: 14 day, group: systemic, systemic / pathology microscopic / brain / necrosis + systemic / pathology microscopic / brain / vacuolization + systemic / pathology …"}, "rat [4]": {"tested_on": "rat", "conditions": "Subchronic inhalation toxicity, fischer, Whole-Body, dose end: 14 day, group: systemic"}, "rabbit [5]": {"tested_on": "rabbit", "conditions": "Subchronic inhalation toxicity, new zealand white, Whole-Body, dose end: 13 week, group: systemic"}, "rat [6]": {"tested_on": "rat", "conditions": "Subchronic oral toxicity in rodents, fischer, Inhalation, Whole-Body, dose end: 90 day, group: systemic"}, "rat [7]": {"tested_on": "rat", "conditions": "Multigenerational reproductive toxicity study, sprague dawley, Inhalation, Whole-Body, dose end: 2 generation"}, "dog [8]": {"tested_on": "dog", "conditions": "Chronic toxicity; beagle; Inhalation; Whole-Body; dose end: 12 month; group: systemic; systemic / in life observation / body weight / body weight gain + systemic / in life observation / clinical signs / dental fluorosis + …"}, "rat [9]": {"tested_on": "rat", "conditions": "Multigenerational reproductive toxicity study, sprague dawley, Inhalation, Whole-Body, dose end: 2 generation", "remark": "listed apart in the source"}, "mouse [10]": {"tested_on": "mouse", "conditions": "Carcinogenicity; cd1; Inhalation; Whole-Body; dose end: 18 month; group: systemic; systemic / in life observation / body weight / body weight gain + systemic / in life observation / mortality / mortality + systemic / …"}, "dog [11]": {"tested_on": "dog", "conditions": "Subchronic inhalation toxicity, beagle, Whole-Body, dose end: 13 week, group: systemic, systemic / in life observation / body weight / body weight + systemic / in life observation / body weight / body weight gain + systemic / …"}, "[12]": {"conditions": "systemic / in life observation / body weight / body weight + systemic / in life observation / body weight / body weight gain + systemic / …"}, "[13]": {"conditions": "systemic / in life observation / clinical signs / dental fluorosis"}, "[14]": {"conditions": "systemic / in life observation / clinical signs / dental fluorosis + systemic / clinical chemistry / albumin / albumin + systemic / clinical…"}, "[15]": {"conditions": "systemic / pathology microscopic / kidney / hyperplasia + systemic / pathology microscopic / kidney / basophilia"}, "[16]": {"conditions": "systemic / pathology microscopic / kidney / hyperplasia + systemic / pathology microscopic / kidney / basophilia + systemic / in life …"}, "[17]": {"conditions": "systemic / pathology microscopic / nose / inflammation + systemic / clinical chemistry / flouride / fluoride"}, "[18]": {"conditions": "systemic / organ weight / brain / absolute + systemic / in life observation / clinical signs / tooth-mottling + systemic / pathology …"}, "[19]": {"conditions": "systemic / pathology microscopic / nose / inflammation"}, "[20]": {"conditions": "group: offspring, systemic / in life observation / body weight / offspring (pup) weight"}, "[21]": {"conditions": "group: parental, systemic / pathology microscopic / lung / alveolar macrophages + systemic / in life observation / body weight / body weight + systemic / in …"}, "[22]": {"conditions": "group: parental, systemic / pathology microscopic / lung / alveolar macrophages + systemic / pathology gross / lung / foci"}, "[23]": {"conditions": "group: parental, systemic / pathology gross / lung / foci + systemic / pathology microscopic / lung / alveolar macrophages"}, "[24]": {"conditions": "group: parental, systemic / pathology gross / lung / foci + systemic / pathology microscopic / lung / alveolar macrophages + systemic / in life observation…"}}, "data": [{"molecule": "O=S(=O)(F)F", "note": "[Sulfuryl fluoride]", "values": [{"measurement": "LEL", "setting": "mouse [1]; systemic / clinical chemistry / flouride / fluoride", "value": 30, "unit": "ppm"}, {"measurement": "LOAEL", "setting": "mouse [1]; [12]", "value": 100, "unit": "ppm"}, {"measurement": "NEL", "setting": "mouse [1]; [12]", "value": 10, "unit": "ppm"}, {"measurement": "NOAEL", "setting": "mouse [1]; [12]", "value": 30, "unit": "ppm"}, {"measurement": "LEL", "setting": "rat [2]; [13]", "value": 20, "unit": "ppm"}, {"measurement": "LOAEL", "setting": "rat [2]; [13]", "value": 20, "unit": "ppm"}, {"measurement": "NEL", "setting": "rat [2]; [14]", "value": 5, "unit": "ppm"}, {"measurement": "NOAEL", "setting": "rat [2]; [14]", "value": 5, "unit": "ppm"}, {"measurement": "LEL", "setting": "rabbit [3]", "value": 90, "unit": "mg/kg/day"}, {"measurement": "LOAEL", "setting": "rabbit [3]", "value": 90, "unit": "mg/kg/day"}, {"measurement": "NEL", "setting": "rabbit [3]", "value": 30, "unit": "mg/kg/day"}, {"measurement": "NOAEL", "setting": "rabbit [3]", "value": 30, "unit": "mg/kg/day"}, {"measurement": "LEL", "setting": "rat [4]; [15]", "value": 249, "unit": "mg/kg/day"}, {"measurement": "LOAEL", "setting": "rat [4]; [15]", "value": 249, "unit": "mg/kg/day"}, {"measurement": "NEL", "setting": "rat [4]; [16]", "value": 83, "unit": "mg/kg/day"}, {"measurement": "NOAEL", "setting": "rat [4]; [16]", "value": 83, "unit": "mg/kg/day"}, {"measurement": "LOAEL", "setting": "rabbit [5]; [12]", "value": 100, "unit": "ppm"}, {"measurement": "NOAEL", "setting": "rabbit [5]; [12]", "value": 29.8, "unit": "ppm"}, {"measurement": "LEL", "setting": "rabbit [5]; [17]", "value": 29.8, "unit": "ppm"}, {"measurement": "NEL", "setting": "rabbit [5]; [17]", "value": "< 29.8", "unit": "ppm"}, {"measurement": "LOAEL", "setting": "rat [6]; [18]", "value": 5, "unit": "mg/kg/day"}, {"measurement": "NOAEL", "setting": "rat [6]; [18]", "value": 1.49, "unit": "mg/kg/day"}, {"measurement": "LEL", "setting": "rat [6]; [19]", "value": 1.49, "unit": "mg/kg/day"}, {"measurement": "NEL", "setting": "rat [6]; [19]", "value": "< 1.49", "unit": "mg/kg/day"}, {"measurement": "LEL", "setting": "rat [7]; [20]", "value": 108, "unit": "mg/kg/day"}, {"measurement": "LOAEL", "setting": "rat [7]; [20]", "value": 108, "unit": "mg/kg/day"}, {"measurement": "NEL", "setting": "rat [7]; [20]", "value": 14, "unit": "mg/kg/day"}, {"measurement": "NOAEL", "setting": "rat [7]; [20]", "value": 14, "unit": "mg/kg/day"}, {"measurement": "NEL", "setting": "rat [7]; [21]", "value": 3.6, "unit": "mg/kg/day"}, {"measurement": "NOAEL", "setting": "rat [7]; [21]", "value": 3.6, "unit": "mg/kg/day"}, {"measurement": "LEL", "setting": "rat [7]; [22]", "value": 14, "unit": "mg/kg/day"}, {"measurement": "LOAEL", "setting": "rat [7]; [22]", "value": 14, "unit": "mg/kg/day"}, {"measurement": "LEL", "setting": "dog [8]", "value": 80, "unit": "ppm"}, {"measurement": "LOAEL", "setting": "dog [8]", "value": 80, "unit": "ppm"}, {"measurement": "NEL", "setting": "dog [8]", "value": 20, "unit": "ppm"}, {"measurement": "NOAEL", "setting": "dog [8]", "value": 20, "unit": "ppm"}, {"measurement": "LEL", "setting": "rat [9]; [20]", "value": 108, "unit": "mg/kg/day"}, {"measurement": "LOAEL", "setting": "rat [9]; [20]", "value": 108, "unit": "mg/kg/day"}, {"measurement": "NEL", "setting": "rat [9]; [20]", "value": 14, "unit": "mg/kg/day"}, {"measurement": "NOAEL", "setting": "rat [9]; [20]", "value": 14, "unit": "mg/kg/day"}, {"measurement": "LEL", "setting": "rat [9]; [23]", "value": 14, "unit": "mg/kg/day"}, {"measurement": "LOAEL", "setting": "rat [9]; [23]", "value": 14, "unit": "mg/kg/day"}, {"measurement": "NEL", "setting": "rat [9]; [24]", "value": 3.6, "unit": "mg/kg/day"}, {"measurement": "NOAEL", "setting": "rat [9]; [24]", "value": 3.6, "unit": "mg/kg/day"}, {"measurement": "LEL", "setting": "mouse [10]", "value": 79.3, "unit": "mg/kg/day"}, {"measurement": "LOAEL", "setting": "mouse [10]", "value": 79.3, "unit": "mg/kg/day"}, {"measurement": "NEL", "setting": "mouse [10]", "value": 19.8, "unit": "mg/kg/day"}, {"measurement": "NOAEL", "setting": "mouse [10]", "value": 19.8, "unit": "mg/kg/day"}, {"measurement": "LEL", "setting": "dog [11]", "value": 200, "unit": "ppm"}, {"measurement": "LOAEL", "setting": "dog [11]", "value": 200, "unit": "ppm"}, {"measurement": "NEL", "setting": "dog [11]", "value": 100, "unit": "ppm"}, {"measurement": "NOAEL", "setting": "dog [11]", "value": 100, "unit": "ppm"}]}]}
